Assays:
[1] = system: PC12 cells; test: Addition of rhIL-1β to PC12 cultures in the presence of NGF, insulin or serum; type: cell-based; conditions: 1 μg/ml
Description: (§1) PC12 cells were grown as previously described (Greene and Tishcler, 1976) on rat-tail collagen-coated dishes in RPMI 1640 medium containing 5% fetal calf serum and 10% heat-inactivated horse serum (complete medium). NGF primed PC12 cells were grown for at least 7 days in RPMI 1640 medium plus 1% horse serum and NGF (100 ng/ml). For cell survival assays involving trophic factor deprivation, cells (either naive or NGF-pretreated) were extensively washed in serum-free RPMI 1640 medium and re-plated on fresh collagen-coated 24-well dishes as previously described (Rukenstein et al., 1991) in RPMI 1640 medium lacking serum or NGF. For SOD1 down-regulation survival assays, cells were re-plated in complete medium with V-ASOD1 (vector linked antisense oligonucleotide to SOD1, 50 nM). Various concentrations of ICE inhibitors were included in the medium as indicated. Numbers of viable cells per culture were determined by quantifying intact nuclei as previously described (Rukenstein et al., 1991). Counts were performed in triplicate and reported as means±SEM.

[2] = system: PC12 cells; test: PC12 cell survival after SOD1 down-regulation by V-ASOD1; type: cell-based, rat
Description: as §1

Question: For “IL-1β: recombinant human IL-1β provided by the NCI”, which “cell death on addition to PC12 cultures” value [1] is on record?
Answer: did not produce cell death

Question: And the “effect of exogenous IL-1β on V-ASOD1 induced death” value ([2]; IL-1β 1 μg/ml with V-ASOD1 50 nM)?
Answer: potentiates the cell death

Question: What about the “effect of exogenous IL-1β on protection by V-ICEinh” value ([2]; IL-1β 1 μg/ml, V-ASOD1 50 nM, V-ICEinh 25 nM) of the same substance?
Answer: abrogates the protection

Question: What about the “effect of exogenous IL-1β alone on cell death” value ([2]; IL-1β 1 μg/ml, no V-ASOD1) of the same substance?
Answer: no effect

— patent US6794126B2, “Methods for preventing or inhibiting neuronal cell death” (The Trustees of Columbia University in the City of New York, priority 1996, dated 2004)
